{
  "source": "paper PMC10920428",
  "about": "(Applied Microbiology and Biotechnology, 2024)",
  "target": "T1, homogentisate solanesyltransferase (CrHST) (Chlamydomonas reinhardtii, UniProt A1JHN0)",
  "T1 construct": "gene HST; N-terminal GST tag (pDEST15), expressed in E. coli BL21 AI",
  "T1 sequence (A1JHN0 51-370)": "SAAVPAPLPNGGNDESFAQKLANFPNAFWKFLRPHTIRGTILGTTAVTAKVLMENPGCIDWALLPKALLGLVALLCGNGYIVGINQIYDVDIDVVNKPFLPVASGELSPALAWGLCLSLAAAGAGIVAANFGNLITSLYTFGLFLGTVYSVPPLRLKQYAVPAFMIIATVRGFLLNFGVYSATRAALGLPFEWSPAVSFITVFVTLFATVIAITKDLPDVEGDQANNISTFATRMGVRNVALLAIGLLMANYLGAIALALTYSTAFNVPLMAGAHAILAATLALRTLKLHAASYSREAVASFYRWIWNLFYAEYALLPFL",
  "assay": "biochemical",
  "data": [
    {"compound": "Cc1cccc(C2CC2)c1Oc1nnc(Cl)cc1O", "note": "[DMC, Des-Morpholinocarbony Cyclopyrimorate]", "values": [
      {"measurement": "IC50", "result": "3.63 ± 0.53", "unit": "µM"}
    ]}
  ]
}
